Results taken from patent US12240813B2, “Deuterated tryptamine derivatives and methods of use” (priority 2020, dated 2025).

Assays:
[1] = target: T1, hrMAO-A (Homo sapiens, UniProt P21397); test: Metabolic stability in the presence of hrMAO-A; assay type: in vitro ADME; details: for MAO (metabolized or not) / MAO, % (half-life as % vs. the related nondeuterated compound): MAO-A; for MAO (metabolized or not): last assay time point 120 min; for MAO, % (half-life as % vs. the related nondeuterated compound): values in square brackets are within 10% difference (assay's accuracy), no deuteration effect
T1 construct: purchased XenoTech Lot #8213001
T1 sequence (P21397 1-527): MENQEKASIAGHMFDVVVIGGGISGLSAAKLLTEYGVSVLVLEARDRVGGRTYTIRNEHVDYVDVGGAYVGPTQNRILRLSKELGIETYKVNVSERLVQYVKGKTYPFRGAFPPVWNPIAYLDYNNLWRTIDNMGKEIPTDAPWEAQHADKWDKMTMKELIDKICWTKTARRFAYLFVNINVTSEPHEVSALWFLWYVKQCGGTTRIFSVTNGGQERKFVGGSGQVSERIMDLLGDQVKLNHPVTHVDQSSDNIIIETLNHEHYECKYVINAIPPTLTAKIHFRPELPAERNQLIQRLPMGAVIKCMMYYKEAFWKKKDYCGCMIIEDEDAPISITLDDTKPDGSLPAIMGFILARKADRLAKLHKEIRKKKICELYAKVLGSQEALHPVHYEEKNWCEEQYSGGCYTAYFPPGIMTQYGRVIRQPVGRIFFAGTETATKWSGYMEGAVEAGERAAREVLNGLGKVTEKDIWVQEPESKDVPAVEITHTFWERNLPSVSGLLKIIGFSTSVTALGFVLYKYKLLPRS
Procedure: The reaction mixture was prepared as described below. The co-dosed TAs were added into the reaction mixture at a final concentration of 1 microM each. The positive control, kynuramine (25 microM), was run simultaneously with the TAs in a separate reaction. The reaction mixture (without TAs or kynuramine) was equilibrated in a shaking water bath at 37° C. for 5 minutes. The reaction was initiated by the addition of the TAs or kynuramine, and the mixture was incubated in a shaking water bath at 37° C. Aliquots (100 microL) of the TA reaction mixture were withdrawn at 0, 5, 10, 20, 30, 60, and 120 minutes. Aliquots (100 microL) of the positive control reaction mixture were withdrawn at 0 and 30 minutes. TA and kynuramine samples were immediately combined with 100 microL of ice-cold 100% MeCN containing 0.1% formic acid and IS to terminate the reaction. The samples were then mixed and centrifuged to precipitate proteins. All TA samples were assayed by LC-HRAMS. The PARR (analyte to IS) at each time point was compared to the PARR at time 0 to determine the percent remaining at each time point. Reaction composition: hrMAO 0.02 mg/mL; Potassium Phosphate, pH 7.4 100 mM; Magnesium Chloride 5 mM; Test Articles (each) 1 microM.

[2] = tested on: rat liver microsomes; test: Metabolic stability in rat liver microsomes (RLM); details: for RLM (metabolized or not): last assay time point 120 min; for RLM, % (half-life as % vs. the related nondeuterated compound): values in square brackets are within 10% difference (assay's accuracy), no deuteration effect; for RLM (metabolized or not) / RLM, % (half-life as % vs. the related nondeuterated compound) / % Remaining of Initial, 0 min / % Remaining of Initial, 5 min / % Remaining of Initial, 10 min / % Remaining of Initial, 20 min / % Remaining of Initial, 30 min / % Remaining of Initial, 60 min / % Remaining of Initial, 120 min: RLM
[3] = hrMAO-A, Table 3, four test articles
[4] = hrMAO-A, Table 5, d8 and d10 analogs of DMT
[5] = Table 4, d8 and d10 analogs of DMT

## COc1cccc2[nH]cc(CCN(C)C)c12 [reference compound]
[1]
  MAO (metabolized or not): R
[2]
  RLM (metabolized or not): R

## CCN(CC)CCc1c[nH]c2cccc(OC)c12 [reference compound]
[2]
  RLM (metabolized or not): R

## [2H]c1ccc2[nH]c([2H])c(CCN([2H])CC)c2c1O
[2]
  RLM (metabolized or not): R

## [2H]C([2H])(Cc1c[nH]c2ccccc12)N(C)CC
[1]
  MAO, % (half-life as % vs. the related nondeuterated compound): 168%
[2]
  RLM, % (half-life as % vs. the related nondeuterated compound): 121%

## CN(C)CCc1c[nH]c2ccccc12 [DMT, reference compound]
[1]; [3]
  % Remaining of Initial, 0 min: 100%
  % Remaining of Initial, 5 min: 96.3%
  % Remaining of Initial, 10 min: 90.7%
  % Remaining of Initial, 20 min: 64.8%
  % Remaining of Initial, 30 min: 49.4%
  % Remaining of Initial, 60 min: 18.1%
  % Remaining of Initial, 120 min: 3.95%
  Half-life: 0.453 h
[1]; hrMAO-A, Table 3
  CLint: 0.638 mL/min/mg protein
[2]; Table 2, four test articles
  % Remaining of Initial, 0 min: 100%
  % Remaining of Initial, 5 min: 65.2%
  % Remaining of Initial, 10 min: 52.2%
  % Remaining of Initial, 20 min: 41.0%
  % Remaining of Initial, 30 min: 33.2%
  % Remaining of Initial, 60 min: 17.4%
  % Remaining of Initial, 120 min: 4.07%

## CCN(CC)CCc1c[nH]c2ccc(OC)cc12 [reference compound]
[2]
  RLM (metabolized or not): R

## CCN(C)CCc1c[nH]c2ccc(O)cc12 [reference compound]
[1]
  MAO (metabolized or not): R
[2]
  RLM (metabolized or not): R

## [2H]C([2H])(c1c[nH]c2ccccc12)C([2H])([2H])N(C)CC
[1]
  MAO, % (half-life as % vs. the related nondeuterated compound): 162%
[2]
  RLM, % (half-life as % vs. the related nondeuterated compound): 131%

## [2H]C([2H])([2H])N(C([2H])([2H])[2H])C([2H])([2H])C([2H])([2H])c1c[nH]c2ccccc12 [DMT-d10]
[1]; MAO-A enzymatic assay
  stability in the MAO-A enzymatic assay: superiority
[1]; [3]
  % Remaining of Initial, 0 min: 100%
  % Remaining of Initial, 5 min: 107%
  % Remaining of Initial, 10 min: 112%
  % Remaining of Initial, 20 min: 103%
  % Remaining of Initial, 30 min: 101%
  % Remaining of Initial, 60 min: 82.2%
  % Remaining of Initial, 120 min: 68.6%
  Half-life: > 2 h
[1]; [4]
  % Remaining of Initial, 0 min: 100.0%
  % Remaining of Initial, 5 min: 99.0%
  % Remaining of Initial, 10 min: 94.9%
  % Remaining of Initial, 20 min: 95.4%
  % Remaining of Initial, 30 min: 91.4%
  % Remaining of Initial, 60 min: 81.5%
  % Remaining of Initial, 120 min: 65.8%
  Half-life: > 2 h
[2]; Table 2, four test articles
  % Remaining of Initial, 0 min: 100%
  % Remaining of Initial, 5 min: 72.5%
  % Remaining of Initial, 10 min: 62.2%
  % Remaining of Initial, 20 min: 55.2%
  % Remaining of Initial, 30 min: 50.9%
  % Remaining of Initial, 60 min: 39.6%
  % Remaining of Initial, 120 min: 29.4%
[2]; [5]
  % Remaining of Initial, 0 min: 100%
  % Remaining of Initial, 5 min: 69.3%
  % Remaining of Initial, 10 min: 56.0%
  % Remaining of Initial, 20 min: 44.9%
  % Remaining of Initial, 30 min: 39.3%
  % Remaining of Initial, 60 min: 30.5%
  % Remaining of Initial, 120 min: 23.6%
[2]; rat liver microsomes, compared with DMT-α,α-d2 and DMT-α,α,β,β-d4
  metabolic stability: Further enhancement of metabolic stability

## [2H]C([2H])(NCC)C([2H])([2H])c1c[nH]c2ccccc12
[1]
  MAO, % (half-life as % vs. the related nondeuterated compound): 140%
[2]
  RLM, % (half-life as % vs. the related nondeuterated compound): 142%

## [2H]C([2H])(c1c[nH]c2ccc(O)cc12)C([2H])([2H])N(C)CC
[1]
  MAO, % (half-life as % vs. the related nondeuterated compound): 179%
[2]
  RLM, % (half-life as % vs. the related nondeuterated compound): 144%

## CCN(C)CCc1c[nH]c2cccc(OC)c12 [reference compound]
[1]
  MAO (metabolized or not): R
[2]
  RLM (metabolized or not): R

## [2H]C([2H])([2H])Oc1ccc2[nH]cc(CC([2H])([2H])N(C([2H])([2H])[2H])C([2H])([2H])[2H])c2c1
[1]
  MAO, % (half-life as % vs. the related nondeuterated compound): 366%
[2]
  RLM, % (half-life as % vs. the related nondeuterated compound): 288%

## [2H]C([2H])([2H])NC([2H])([2H])Cc1c[nH]c2ccccc12
[1]
  MAO, % (half-life as % vs. the related nondeuterated compound): 744%
[2]
  RLM, % (half-life as % vs. the related nondeuterated compound): 207%

## [2H]C([2H])(Cc1c[nH]c2ccccc12)NC([2H])([2H])C([2H])([2H])[2H]
[1]
  MAO, % (half-life as % vs. the related nondeuterated compound): 170%
[2]
  RLM, % (half-life as % vs. the related nondeuterated compound): 151%

## [2H]C([2H])(c1c[nH]c2cccc(O)c12)C([2H])([2H])N(C(C)C)C(C)C
[2]
  RLM, % (half-life as % vs. the related nondeuterated compound): [97] %

## [2H]C([2H])(c1c[nH]c2ccccc12)C([2H])([2H])N(CC=C)CC=C
[2]
  RLM, % (half-life as % vs. the related nondeuterated compound): [106] %

## [2H]C([2H])(NC(C)C)C([2H])([2H])c1c[nH]c2cccc(O)c12
[2]
  RLM, % (half-life as % vs. the related nondeuterated compound): [108] %

## [2H]c1[nH]c2c([2H])c([2H])c([2H])c(O)c2c1CCN([2H])C(C)C
[2]
  RLM, % (half-life as % vs. the related nondeuterated compound): 131%

## [2H]C([2H])(Cc1c[nH]c2ccc(O)cc12)N(C)CC
[1]
  MAO, % (half-life as % vs. the related nondeuterated compound): 173%
[2]
  RLM, % (half-life as % vs. the related nondeuterated compound): 132%

## CC(C)NCCc1c[nH]c2ccccc12 [reference compound]
[2]
  RLM (metabolized or not): R

## CCN(CC)CCc1c[nH]c2ccccc12 [reference compound]
[2]
  RLM (metabolized or not): R

## C=CCNCCc1c[nH]c2ccccc12 [reference compound]
[2]
  RLM (metabolized or not): R

## CCNCCc1c[nH]c2cccc(O)c12 [reference compound]
[2]
  RLM (metabolized or not): R

## [2H]C([2H])(NC(C)C)C([2H])([2H])c1c[nH]c2ccccc12
[2]
  RLM, % (half-life as % vs. the related nondeuterated compound): [106] %

## [2H]C([2H])(c1c[nH]c2ccc(O)cc12)C([2H])([2H])N(CC)CC
[2]
  RLM, % (half-life as % vs. the related nondeuterated compound): [106] %

## [2H]c1[nH]c2c([2H])c([2H])c([2H])c([2H])c2c1CCN([2H])C(C)C
[2]
  RLM, % (half-life as % vs. the related nondeuterated compound): 145%

## [2H]C([2H])(c1c[nH]c2ccc(OC)cc12)C([2H])([2H])N(CC)CC
[2]
  RLM, % (half-life as % vs. the related nondeuterated compound): [95] %

## [2H]c1[nH]c2c([2H])c([2H])c(OC)c([2H])c2c1CCN(CC)CC
[2]
  RLM, % (half-life as % vs. the related nondeuterated compound): 172%

## [2H]C([2H])([2H])C([2H])([2H])NC([2H])([2H])C([2H])([2H])c1c[nH]c2cccc(O)c12
[2]
  RLM, % (half-life as % vs. the related nondeuterated compound): [93] %

## [2H]c1[nH]c2c([2H])c([2H])c([2H])c(O)c2c1CCN(C(C)C)C(C)C
[2]
  RLM, % (half-life as % vs. the related nondeuterated compound): 167%

## [2H]C([2H])(c1c[nH]c2ccccc12)C([2H])([2H])N(CC)CC
[2]
  RLM, % (half-life as % vs. the related nondeuterated compound): [105] %

## C=CCN(CC=C)CCc1c[nH]c2ccccc12 [reference compound]
[2]
  RLM (metabolized or not): R

## CC(C)NCCc1c[nH]c2cccc(O)c12 [reference compound]
[2]
  RLM (metabolized or not): R

## [2H]C([2H])(NCC)C([2H])([2H])c1c[nH]c2cccc(O)c12
[2]
  RLM, % (half-life as % vs. the related nondeuterated compound): [94] %

## CC(C)N(CCc1c[nH]c2cccc(O)c12)C(C)C [reference compound]
[2]
  RLM (metabolized or not): R

## CCN(CC)CCc1c[nH]c2ccc(O)cc12 [reference compound]
[2]
  RLM (metabolized or not): R
